Numbers after ± are expanded uncertainties.
Columns and labels:
[1] = for molar entropy: 101.33 kPa, Small (less than 1 g) adiabatic calorimetry; for Triple point temperature: Adiabatic calorimetry
[2] = molar heat capacity at constant pressure; conditions: 101.33 kPa, Small (less than 1 g) adiabatic calorimetry
[3] = Molar enthalpy of transition or fusion; conditions: Adiabatic calorimetry

CCCCn1cc[n+](C)c1.O=[N+]([O-])[O-] [1-butyl-3-methylimidazolium nitrate]
Conditions | molar entropy, [1] [J/K/mol] | molar heat capacity at constant pressure, [2] [J/K/mol]
5 K, Crystal 4 | 0.18 ± 0.035 | 0.536 ± 0.033
10 K, Crystal 4 | 1.52 ± 0.07 | 4.46 ± 0.091
15 K, Crystal 4 | 4.64 ± 0.12 | 11.93 ± 0.19
20 K, Crystal 4 | 9.379 ± 0.2 | 21.74 ± 0.28
25 K, Crystal 4 | 15.39 ± 0.27 | 32.7 ± 0.35
30 K, Crystal 4 | 22.34 ± 0.32 | 43.8 ± 0.32
35 K, Crystal 4 | 29.9 ± 0.37 | 54.44 ± 0.37
40 K, Crystal 4 | 37.83 ± 0.43 | 64.5 ± 0.42
45 K, Crystal 4 | 45.98 ± 0.5 | 73.88 ± 0.47
50 K, Crystal 4 | 54.22 ± 0.56 | 82.59 ± 0.52
55 K, Crystal 4 | 62.47 ± 0.61 | 90.63 ± 0.58
60 K, Crystal 4 | 70.67 ± 0.68 | 97.94 ± 0.58
70 K, Crystal 4 | 86.8 ± 0.83 | 111.1 ± 0.67
80 K, Crystal 4 | 102.4 ± 0.92 | 122.4 ± 0.75
90 K, Crystal 4 | 117.4 ± 1 | 132.2 ± 0.75
100 K, Crystal 4 | 131.8 ± 1.1 | 141 ± 0.75
110 K, Crystal 4 | 145.6 ± 1.2 | 149.2 ± 0.83
120 K, Crystal 4 | 158.9 ± 1.2 | 156.9 ± 0.83
130 K, Crystal 4 | 171.8 ± 1.3 | 164.4 ± 0.83
140 K, Crystal 4 | 184.2 ± 1.4 | 171.8 ± 0.92
150 K, Crystal 4 | 196.3 ± 1.5 | 179.1 ± 0.92
160 K, Crystal 4 | 208.1 ± 1.6 | 186.5 ± 0.92
170 K, Crystal 4 | 219.7 ± 1.6 | 194.1 ± 1
180 K, Crystal 4 | 231 ± 1.7 | 202 ± 1
190 K, Crystal 4 | 242.1 ± 1.7 | 210.1 ± 1.1
200 K, Crystal 4 | 253.1 ± 1.8 | 218.6 ± 1.1
210 K, Crystal 4 | 264 ± 1.9 | 227.3 ± 1.1
220 K, Crystal 4 | 274.7 ± 1.9 | 236.2 ± 1.2
230 K, Crystal 4 | 285.4 ± 2 | 245.1 ± 1.2
240 K, Crystal 4 | 296.1 ± 2.1 | 254 ± 1.2
250 K, Crystal 4 | 306.6 ± 2.2 | 262.9 ± 1.2
260 K, Crystal 4 | 317.1 ± 2.2 | 271.8 ± 1.2
270 K, Crystal 4 | 327.5 ± 2.2 | 280.7 ± 1.3
278.2 K, Crystal 3 | 343.5 ± 2.3 | 288 ± 1.3
278.2 K, Crystal 4 | 336 ± 2.3 | 288 ± 1.3
280 K, Crystal 3 | 345.3 ± 2.4 | 289.6 ± 1.3
285 K, Crystal 3 | 350.5 ± 2.4 | 294.1 ± 1.4
288.1 K, Crystal 2 | 354.9 ± 2.4 | 296.8 ± 1.4
288.1 K, Crystal 3 | 353.7 ± 2.4 | 296.8 ± 1.4
290 K, Crystal 2 | 356.9 ± 2.4 | 298.6 ± 1.4
292.2 K, Crystal 1 | 359.7 ± 2.5 | 300.5 ± 1.4
292.2 K, Crystal 2 | 359.2 ± 2.5 | 300.5 ± 1.4
295 K, Crystal 1 | 362.6 ± 2.5 | 303 ± 1.4
298.15 K, Crystal 1 | 365.8 ± 2.5 | 305.8 ± 1.4
300 K, Crystal 1 | 367.7 ± 2.5 | 307.5 ± 1.4
309.16 K, Crystal 1 | 377.1 ± 2.6 | 315.6 ± 1.5
309.16 K, Liquid | 435.3 ± 2.9 | 357.7 ± 1.7
310 K, Liquid | 436.3 ± 2.9 | 358 ± 1.7
320 K, Liquid | 447.7 ± 3 | 361.8 ± 1.7
330 K, Liquid | 458.9 ± 3.1 | 365.8 ± 1.7
340 K, Liquid | 469.9 ± 3.2 | 369.8 ± 1.7
350 K, Liquid | 480.7 ± 3.2 | 374.1 ± 1.7
360 K, Liquid | 491.2 ± 3.2 | 378.5 ± 1.7
370 K, Liquid | 501.6 ± 3.3 | 383 ± 1.7

Conditions | Molar enthalpy of transition or fusion, Crystal 1 [kcal/mol] | Molar enthalpy of transition or fusion, Crystal 2 [kcal/mol] | Molar enthalpy of transition or fusion, Crystal 3 [kcal/mol] | Molar enthalpy of transition or fusion, Crystal 4 [kcal/mol] | Triple point temperature, Crystal 1 [K] | Triple point temperature, Crystal 2 [K] | Triple point temperature, Crystal 3 [K] | Triple point temperature, Crystal 4 [K]
[1] | – | – | – | – | 309.16 ± 0.07 | 292.2 ± 0.1 | 288.1 ± 0.1 | 278.8 ± 0.1
[3] | 4.3 ± 0.0502 | 0.0359 ± 0.0239 | 0.086 ± 0.0239 | 0.497 ± 0.0239 | – | – | – | –
